{"source": "patent US20130150551A1", "about": "“PROCESSES FOR THE PRODUCTION OF HYDROGENATED PRODUCTS AND DERIVATIVES THEREOF” (BIOAMBER S.A.S., priority 2010, published 2013)", "origin": "cited, not measured here", "conditions": "first acid group", "data": [{"molecule": "O=C(O)CCCCC(=O)O", "note": "[AA, adipic acid]", "values": [{"measurement": "pKa1", "result": 4.43}]}]}
